Values of other authors, collected in patent US20250090695A1, “IMMUNOSTIMULANT-CYTOTOXIC CONJUGATE COMPOSITION AND METHODS FOR CANCER TREATMENT” (The Research Foundation for the State University of New York, priority 2022, published 2025).

Tests used:
[1] = metastatic setting; cited from earlier work
[2] = patients; versus 11.2 months with placebo; cited from earlier work

| Compound | Overall survival extension [1] | Overall survival [2] |
| --- | --- | --- |
| CNC(=O)c1ccc(N2C(=S)N(c3ccc(C#N)c(C(F)(F)F)c3)C(=O)C2(C)C)cc1F [enzalutamide] | 4-5 months |  |
| Radium-223 |  | 14 months |
